Series [1] relates to eye. As to the kind of experiment: Pharmacological studies: topical (ocular) tolerance, efficacy, onset and duration of action.
A short description of series [2]: Lens penetration and ocular distribution of 14-C labelled eye drops after multiple topical ocular administration. In kind it is in vivo, chinchilla pigmented rabbits. How it is done:
In a first animal model, the ocular distribution and lens penetration of diclofenac potassium and diclofenac sodium is determined after multiple topical ocular administration of a corresponding eye drop composition. […] At regular intervals post-instillation (0.5, 1.5, 2.0 hours), the animals are sacrificed and both eyes are removed. Said eyes are microdissected and the ocular distribution of the radioactivity is measured by a standard scintillation beta counting method.
Lens penetration and ocular distribution of diclofenac potassium and diclofenac sodium were determined after multiple topical ocular administration of corresponding 14-C labelled eye drop composition into the conjunctival sac of the right eye of pigmented rabbits.
At 0.5, 1.5, 2 hours post-instillation, 5 animals for each time-point and each treatment group were sacrificed and the radioactivity content (in ng-Eq/g of structure) in the cornea, aqueous humor, iris-ciliary body, vitreous, whole blood and plasma was measured. At 2 hours post-instillation, the left eyes were removed and the ocular distribution was measured by a standard scintillation beta counting method. The right lenses were used for autoradiography.
The areas under the curve (AUC: ng-Eq/g of structure versus time) were calculated and statistically compared.

The test system of series [3] is arachidonic acid induced uveitis. As to the kind of experiment: Arachidonic acid induced uveitis, aqueous flare by laser cell flare meter (LCFM).
Series [4] has as its system uveitis. As to the kind of experiment: Uveitis models in rabbits (all the aforementioned animal models: arachidonic acid, argon laser iris photocoagulation, paracentesis). The settings on record: compared to diclofenac sodium. It is filed as in vivo, pigmented rabbits. The protocol: Uveitis is induced in said model by an argon laser iris photocoagulation in pigmented rabbits. Said iris photocoagulation is induced by 500 μm argon laser burns (power 750 mW, duration 0.1 sec). The inflammatory processes resulting therefrom are measured every 30 minutes after the laser induced photo-coagulation, by using the laser cell flare meter (LCFM) technique.
In addition to the non invasive LCFM evaluation of the above mentioned animal model, an invasive evaluation is carried out. Therefore the rabbits are sacrificed one hour and in regular intervals after which said eyes have been subjected to the traumatic uveitis by photocoagulation, and the aqueous humor of said rabbit eyes is sampled. The aqueous protein levels, cell counts and prostaglandins (PGE2, PGD2, 6-keto PGF1α) which represent the degree of an inflammation are biochemically investigated and quantified.
Another animal model is used for the induction of a traumatic uveitis. It is the induction of a uveitis by the paracentesis of the anterior chamber of the rabbit eye. In analogy to the previously described laser induced uveitis model, drugs to be tested, are again administred prior to the paracentesis challenge. […] The aqueous protein levels are again analyzed, quantified and then correlated with the degree of an inflammation.

“Also recorded” adds a separate entry of the source.

Take `O=C(O)Cc1ccccc1Nc1c(Cl)cccc1Cl` [diclofenac potassium, potassium 2-[(2,6-dichlorophenyl)amino]-phenyl acetate]: in series [1] (e.g. in the eye), the “duration of action (in words)” value was “long lasting duration of action” and the “onset of action (in words)” value was “surprisingly short onset of action”. In addition, the “topical tolerance, e.g. ocular tolerance, and efficacy (in words)” value in series [1] (in comparison to diclofenac sodium) is “much better topical tolerance, e.g. ocular tolerance, and efficacy”. The “ocular penetration / levels of radioactivity (in words)” value in series [2] (in comparison to diclofenac sodium, acetate) is reported as “much superior; also recorded: clearly displayed higher levels of radioactivity”. Also, in series [2] (rabbit, in vivo), the “ocular distribution, order of concentrations (in words)” value was “highest concentrations are found in the cornea, and in descending order in the aqueous humor, in the iris ciliary body and in the vitreous”. In series [3] (0.05% diclofenac potassium versus 0.1% diclofenac sodium), the “efficacy / degree of inflammation (in words)” value is reported as “almost totally suppressed”. In addition, in series [3] (taking into account 0.1% versus 0.05% drug concentration), the “fold efficacy of diclofenac sodium” value is “more than five fold”. Moreover, the “efficacy in all the aforementioned animal models (in words)” value in series [4] was “better efficacy”.

(Values after patent publication US5891913A, “Ophthalmic and aural compositions containing diclofenac potassium” (priority 1994, dated 1999).)
